Data from patent publication US20090311295A1, “PARTICLES WITH HIGH UNIFORM LOADING OF NANOPARTICLES AND METHODS OF PREPARATION THEREOF” (priority 2006, published 2009).

Legend:
[1] = Solubility of raw materials and polymer melt mixtures; conditions: for MeCl2 Solubility: methylene chloride, Table III; for solubility in organics: organic solvents
[2] = X-ray diffraction (XRD) crystallinity; format: physicochemical; conditions: crystalline area divided by total scan area
Method: X-ray diffraction (XRD) was carried out on the raw materials of PS, PMMA and brilliant blue G. Crystallinity of these materials was calculated by dividing the crystalline area (obtained by subtracting amorphous region) by the total scan area. […] XRD was then run on the melt mixtures of brilliant blue G with PS and PMMA.

| Compound | MeCl2 Solubility [1] | solubility in organics [1] | water solubility [1] | XRD % Crystallinity [2] |
| --- | --- | --- | --- | --- |
| CCN(Cc1cccc(S(=O)(=O)[O-])c1)c1ccc(C(=C2C=CC(=[N+](CC)Cc3cccc(S(=O)(=O)[O-])c3)C=C2)c2ccccc2S(=O)(=O)[O-])cc1.[Na+].[Na+] [FD&C blue #1] | − | insoluble in most organics | very water soluble |  |
| O=C1/C(=C2\Nc3ccc(S(=O)(=O)[O-])cc3C2=O)Nc2ccc(S(=O)(=O)[O-])cc21.[Na+].[Na+] [FD&C blue #2] | − | insoluble in most organics | very water soluble | 36.4% |
| Chlorophyll | − | insoluble in most organics | water soluble | 19.1% |
| CCOc1ccc(Nc2ccc(/C(=C3C=C/C(=[N+](/CC)Cc4cccc(S(=O)(=O)[O-])c4)C=C/3C)c3ccc(N(CC)Cc4cccc(S(=O)(=O)[O-])c4)cc3C)cc2)cc1.[Na+] [Brillian blue G, Brilliant blue G] |  |  |  | 22.3% |
| CC1=C(/C=C/C(C)=C/C=C/C(C)=C/C=C/C=C(C)/C=C/C=C(C)/C=C/C2=C(C)CCCC2(C)C)C(C)(C)CCC1 [beta-Carotene, β-carotene] | + | slightly soluble in some organics | nearly water insoluble |  |
| [Cu+2].c1ccc2c(c1)-c1nc-2nc2[n-]c(nc3nc(nc4[n-]c(n1)c1ccccc41)-c1ccccc1-3)c1ccccc21 [Copper(II) phthalocyanine] | − | insoluble in most organics | water insoluble | 67.1% |
| CC1(C)C(/C=C/C=C/C=C/C=C2\N(CCCCS(=O)(=O)O)c3ccc4ccccc4c3C2(C)C)=[N+](CCCCS(=O)(=O)[O-])c2ccc3ccccc3c21 [Indocyanine green] | − | insoluble in most organics | very water soluble | 24.8% |
